Source: patent US12091406B2, “Lysine acetyltransferase 6A (KAT6A) inhibitors and uses thereof” (Insilico Medicine IP Limited, priority 2021, dated 2024)

Tests used:
[1] = Kinetic solubility in 50 mM phosphate buffer (pH 7.4); format: physicochemical; settings: comparison in words, data of Table 3
Description: 10 μL of 10 mM in DMSO of test and control compounds was added into lower chambers of whatman miniuniprep vials, respectively. 490 μL of 50 mM PB (pH 7.4) was added into lower chambers of the whatman miniuniprep vials, respectively. The solubility samples were vortexted for at least 2 minutes. The miniuniprep vials were shaken on a shaker for 24 hours at room temperature at the speed of 800 rpm and then centrifuged for 20 minutes (eg. 4000 rpm). The miniunipreps were compressed to prepare the filtrates for injection into HPLC system to calculate the concentration with standard curve.

Caco-2 cells = assay: Permeability in Caco-2 Assay; format: in vitro ADME; settings: comparison in words, data of Table 4
Description: Permeability of test compounds was determined in Caco-2 Assay. Caco-2 cells purchased from ATCC were seeded onto […] (PET) in 96-well Corning Insert plates at 1×10^5 cells/cm2, and refreshed medium every 4˜5 days until to the 21st to 28th day for confluent cell monolayer formation. The transport buffer in the study was HBSS with 10.0 mM HEPES at pH 7.40±0.05. Test compound was tested at 2.00 μM bi-directionally in duplicate. Digoxin was tested at 10.0 μM bi-directionally in duplicate, while nadolol and metoprolol were tested at 2.00 μM in A to B direction in duplicate. Final DMSO concentration was adjusted to less than 1%. The plate was incubated for 2 hours in CO2 incubator at 37±1° C., with 5% CO2 at saturated humidity without shaking. And all samples after mixed with acetonitrile containing internal standard were centrifuged at 3200×g for 10 min. For nadolol and metoprolol, 200 μL supernatant solution was diluted with 600 μL ultra-pure water for LC-MS/MS analysis. For digoxin and test compounds, 200 μL supernatant solution was diluted with 200 μL ultra-pure water for LC-MS/MS analysis. Concentrations of test and control compounds in starting solution, donor solution, and receiver solution were quantified by LC-MS/MS methodologies, using peak area ratio of analyte/internal standard. […]

COc1cccc(OC)c1S(=O)(=O)Nc1noc2cc(Oc3nccs3)c3c(c12)OCCC3 [Compound 35, 2,6-dimethoxy-N-(5-(thiazol-2-yloxy)-3,4-dihydro-2H-chromeno[8,7-d]isoxazol-9-yl)benzenesulfonamide]
kinetic solubility compared with otherwise identical compound having X as carbon [1]: improved kinetic solubility | permeability compared with reference compound (Caco-2 cells): improved permeability
